Experimental findings from patent US11136337B2, “Pyrazole- and indazole-substituted oxadiazolopyridine derivatives for use as ghrelin O-acyl transferase (GOAT) inhibitors” (Boehringer Ingelheim International GmbH, priority 2018, dated 2021) are described below.

The structures appear in SMILES notation.

Chain of human GOAT (Q96T53 whole entry): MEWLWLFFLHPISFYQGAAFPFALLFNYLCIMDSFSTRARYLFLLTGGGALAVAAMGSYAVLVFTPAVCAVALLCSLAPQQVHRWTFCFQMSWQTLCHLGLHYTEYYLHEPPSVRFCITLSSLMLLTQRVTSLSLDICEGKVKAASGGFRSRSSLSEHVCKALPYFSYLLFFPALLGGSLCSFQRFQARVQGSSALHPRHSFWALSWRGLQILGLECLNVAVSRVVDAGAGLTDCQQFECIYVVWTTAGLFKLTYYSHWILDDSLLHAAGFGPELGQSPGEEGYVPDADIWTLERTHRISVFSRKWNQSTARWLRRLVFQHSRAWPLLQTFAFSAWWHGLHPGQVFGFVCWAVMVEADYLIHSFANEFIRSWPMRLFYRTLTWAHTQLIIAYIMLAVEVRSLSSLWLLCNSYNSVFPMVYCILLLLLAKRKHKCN

The assay has as its target human GOAT (Homo sapiens (Human), UniProt Q96T53). The assay is described as follows: Determination of hGOAT activity in HEK293 cells after incubation with test compound (acyl-ghrelin ELISA). Type of assay: cell-based. The conditions noted are these: HEK293 cells stably expressing human GOAT and preproghrelin; 5 h incubation with octanoate-BSA; acyl-ghrelin in medium by ELISA. Here is the method:
Determination of hGOAT Activity in HEK293 Cells after Incubation with Test Compound
HEK293 cells stably transfected with two expression vectors, one coding for preproghrelin cDNA and a second for the expression of human GOAT cDNA are used as a cellular model. After feeding the cells with octanoic acid for 5 hours, acyl-ghrelin is measured in cell culture medium by an ELISA procedure.
Cellline: Hek293 hGOAT/PPGhrl Clone #1B8Sodium octanoate, Sigma, Cat.-No. C5038
BD Poly-D-Lysin 384-well Plates, black-clear polystyrene BD Bioscience Cat.-No. […] ELISA human acylated Ghrelin Kit purchased from Bertin Pharman (detailed composition of buffers e.g. wash-puffer, ELISA buffer not known)
Cells are plated with a density of 5000 cells/well in 384-well poly-D-lysin plates and incubated for 1 day at 37° C., 5% CO2 in DMEM medium, 10% FCS, 1×NEAA, Puromycin (0.5 μg/ml) and G418 (1 mg/ml). Then the medium is changed to a identical medium without FCS and containing Octanoate-BSA (final concentration 100 μM each) and compound in DMSO (final DMSO concentration 0.3%). After incubation for 5 hours acylghrelin in the medium is measured by ELISA.
The medium sample is diluted 1:25 in Elisa buffer, a 25 μl aliquot is transferred to a 384-well ELISA plate previously washed 4 times with 100 μL wash buffer, and 25 μl tracer-solution is added. After incubation overnight (˜20 h) at 4° C. temperature the plate is washed 4 times with 100 μl wash-buffer per well. Finally 50 μl Ellman's reagent is added to each well and the plate is incubated in the dark for 20 minutes. The absorbance is measured at 405 nm in an Envision multilabel reader and the amount of acylated ghrelin is calculated according to a acylated ghrelin standard curve provided in the same plate.
The analysis of the data is performed by calculation of the percentage of acyl-ghrelin produced in the presence of test compound compared to the amount of acyl-ghrelin produced in the vehicle control samples. An inhibitor of the GOAT enzyme will give values between 100% CTL (no inhibition) and 0% CTL (complete inhibition).
IC50 values are calculated with Assay Explorer or other suited software based on curve fitting of results of 8 different compound concentrations.
A general note: In an ELISA, binding on a coated surface is turned into a signal by an enzyme label.
One may read the IC50 as the midpoint of a concentration-inhibition curve. On to `CCOC(=O)c1cnn(Cc2c(C)nc3nonc3c2N)c1` [Example 1.1, Ethyl 1-({7-amino-5-methyl-[1,2,5]oxadiazolo[3,4-b]pyridin-6-yl}methyl)-1H-pyrazole-4-carboxylate], for which the midpoint of inhibition, the IC50, lay at 1.7 nM. Turning to `Cc1nc2nonc2c(N)c1Cn1cc(-c2ccc(C#N)cc2)cn1` [Example 1.2], the IC50 was 1.6 nM. The result for `Cc1nc2nonc2c(N)c1Cn1cc(-c2c(C)noc2C)cn1` [Example 1.3] reads 2.2 nM; that for `Cc1nc2nonc2c(N)c1Cn1cc(C(C)(C)C)cn1` [Example 1.4], 0.51 nM; that for `Cc1nc2nonc2c(N)c1Cn1cc(NC(=O)OC(C)(C)C)cn1` [Example 1.5], 3.3 nM.

In the case of `COC(=O)c1ccn(Cc2c(C)nc3nonc3c2N)n1` [Example 1.6, Methyl 1-({7-amino-5-methyl-[1,2,5]oxadiazolo[3,4-b]pyridin-6-yl}methyl)-1H-pyrazole-3-carboxylate], the IC50 came to 0.96 nM. This IC50 is about 3.4-fold lower than that of the compound before.

`Cc1nc2nonc2c(N)c1Cn1cc(Br)c(C(F)(F)F)n1` [Example 1.7, 6-{[4-Bromo-3-(trifluoromethyl)-1H-pyrazol-1-yl]methyl}-5-methyl-[1,2,5]oxadiazolo[3,4-b]pyridin-7-amine] came in with an IC50 of 0.6 nM. On to `Cc1nc2nonc2c(N)c1Cn1cc(C(F)(F)F)cn1` [Example 1.8], for which half-maximal inhibition (IC50) required 1.4 nM. Compared with the last compound, the IC50 is about 2.3-fold higher. `Cc1nc2nonc2c(N)c1Cn1cc2cc(C#N)ccc2n1` [Example 1.9]: the IC50 was found to be 4.4 nM. Against the preceding compound, the IC50 is about 3.1-fold higher. `Cc1nc2nonc2c(N)c1Cn1ccc(-c2ccccc2F)n1` [Example 2.1, 6-{[3-(2-Fluorophenyl)-1H-pyrazol-1-yl]methyl}-5-methyl-[1,2,5]oxadiazolo[3,4-b]pyridin-7-amine] returned an IC50 of 0.035 nM. This IC50 lies about 130-fold lower than the previous one. Take `Cc1nc2nonc2c(N)c1Cn1cc(-c2ccccc2F)cn1` [Example 2.2]: the midpoint of inhibition, the IC50, lay at 0.23 nM. Consider `Cc1nc2nonc2c(N)c1Cn1nccc1-c1ccccc1F` [Example 2.3], for which the IC50 worked out at 0.28 nM.

`Cc1nc2nonc2c(N)c1Cn1ccc(C=O)n1` [Example 2.4, 1-({7-amino-5-methyl-[1,2,5]oxadiazolo[3,4-b]pyridin-6-yl}methyl)-1H-pyrazole-3-carbaldehyde] showed an IC50 of 1.7 nM. For `Cc1nc2nonc2c(N)c1Cn1ccc(N2CCCS2(=O)=O)n1` [Example 2.5], the IC50 was found to be 0.18 nM. This IC50 is about 9.4-fold lower than that of the compound before.

`Cc1nc2nonc2c(N)c1Cn1cc(Br)cn1` [Example 2.6] yielded an IC50 of 4.4 nM.

For the compound `Cc1nc2nonc2c(N)c1Cn1cc(-c2cccc(S(C)(=O)=O)c2)c(C(F)(F)F)n1` [Example 3.1, 6-{[4-(3-Methanesulfonylphenyl)-3-(trifluoromethyl)-1H-pyrazol-1-yl]methyl}-5-methyl-[1,2,5]oxadiazolo[3,4-b]pyridin-7-amine], the IC50 was 3.3 nM. `Cc1nc2nonc2c(N)c1Cn1cc(-c2ccc(F)nc2)c(C(F)(F)F)n1` [Example 3.2] showed an IC50 of 1.2 nM. Against the preceding compound, the IC50 is about 2.8-fold lower. `Cc1nc2nonc2c(N)c1Cn1cc(-c2ccnn2C)c(C(F)(F)F)n1` [Example 3.3] had an IC50 of 2.6 nM.

Compound `Cc1nc2nonc2c(N)c1Cn1cc(-c2cnn(C)c2)c(C(F)(F)F)n1` [Example 3.4] returned an IC50 of 5.1 nM.

The compound `Cc1nc2nonc2c(N)c1Cn1ccc(-c2cccnc2F)n1` [Example 4.1, 6-{[3-(2-Fluoropyridin-3-yl)-1H-pyrazol-1-yl]methyl}-5-methyl-[1,2,5]oxadiazolo[3,4-b]pyridin-7-amine] registered an IC50 of 0.034 nM. For the compound `Cc1nc2nonc2c(N)c1Cn1ccc(-c2c[nH]nc2C(F)(F)F)n1` [Example 4.2], inhibition was half-maximal at 0.11 nM (IC50). Against the preceding compound, the IC50 is about 3.2-fold higher. The compound `Cc1nc2nonc2c(N)c1Cn1ccc(-c2cncs2)n1` [Example 4.3] returned an IC50 of 0.12 nM. The result for `Cc1nc2nonc2c(N)c1Cn1ccc(-c2c(C)noc2C)n1` [Example 4.4] reads 0.29 nM; that for `Cc1nc2nonc2c(N)c1Cn1ccc(-c2cnoc2)n1` [Example 4.5], 3.8 nM.

Consider `Cc1nc2nonc2c(N)c1Cn1ccc(-c2ccco2)n1` [Example 4.6], for which the IC50 worked out at 0.17 nM.

In turn, `Cc1nc2nonc2c(N)c1Cn1ccc(-c2cncn2C)n1` [Example 4.7] displayed an IC50 of 0.37 nM. As for `Cc1nc2nonc2c(N)c1Cn1ccc(-c2cccc(S(C)(=O)=O)c2)n1` [Example 4.8], the midpoint of inhibition, the IC50, lay at 0.096 nM. Regarding `Cc1nc2nonc2c(N)c1Cn1ccc(-c2nn(C)c3ccccc23)n1` [Example 4.9], 0.04 nM corresponded to half-maximal inhibition (IC50).

Compound `Cc1nc2nonc2c(N)c1Cn1ccc(-c2cnn3cccnc23)n1` [Example 4.10] had an IC50 of 0.15 nM.

In the case of `Cc1nc2nonc2c(N)c1Cn1ccc(-c2cn(C)c3ncccc23)n1` [Example 4.11], half-maximal inhibition (IC50) was put at 0.19 nM. In the case of `Cc1nc2nonc2c(N)c1Cn1ccc(-c2ccc(S(C)(=O)=O)cc2F)n1` [Example 4.12], half-maximal inhibition (IC50) required 0.076 nM. In turn, `Cc1nc2nonc2c(N)c1Cn1ccc(-c2ccc(C#N)c(F)c2)n1` [Example 4.13] had an IC50 of 0.38 nM.

Consider `Cc1nc2nonc2c(N)c1Cn1ccc(-c2ccnn2C)n1` [Example 4.14], for which the IC50 worked out at 0.2 nM. The compound `Cc1nc2nonc2c(N)c1Cn1cc(-c2ccn[nH]2)cn1` [Example 4.15] showed a concentration for half-maximal inhibition (IC50) of 5.6 nM. Turning to `Cc1nc2nonc2c(N)c1Cn1cc(-c2cnn(C)c2)cn1` [Example 4.16], the IC50 was found to be 3.6 nM. Turning to `Cc1nc2nonc2c(N)c1Cn1ccc(-c2cccc(C(F)(F)F)n2)n1` [Example 5.1, 5-Methyl-6-({3-[6-(trifluoromethyl)pyridin-2-yl]-1H-pyrazol-1-yl}methyl)-[1,2,5]oxadiazolo[3,4-b]pyridin-7-amine], the midpoint of inhibition, the IC50, lay at 0.028 nM. The value for `Cc1nc2nonc2c(N)c1Cn1cc2ccccc2n1` [Example 6.1, 6-[(2H-Indazol-2-yl)methyl]-5-methyl-[1,2,5]oxadiazolo[3,4-b]pyridin-7-amine] was 0.69 nM; that for `Cc1nc2nonc2c(N)c1Cn1ccc(C(=O)N2CCC(F)(F)C2)n1` [Example 7.1, 6-{[3-(3,3-Difluoropyrrolidine-1-carbonyl)-1H-pyrazol-1-yl]methyl}-5-methyl-[1,2,5]oxadiazolo[3,4-b]pyridin-7-amine] was 0.84 nM; that for `Cc1nc2nonc2c(N)c1Cn1ccc(C(=O)N2CCC(F)(F)CC2)n1` [Example 7.2] was 3.5 nM. As for `Cc1nc2nonc2c(N)c1Cn1ccc(C(=O)N2CCC(O)(C(F)(F)F)C2)n1` (stereo not drawn) [Example 7.3], the IC50 came out at 5.1 nM. The value for `Cc1nc2nonc2c(N)c1Cn1ccc(NC(=O)C(NC(=O)OCc2ccccc2)C(C)C)n1` (stereo not drawn) [Example 8.1, Benzyl N-(1-{[1-({7-amino-5-methyl-[1,2,5]oxadiazolo[3,4-b]pyridin-6-yl}methyl)-1H-pyrazol-3-yl]carbamoyl}-2-methylpropyl)carbamate] was 3.2 nM; that for `Cc1nc2nonc2c(N)c1Cn1ccc(CN2CCC(F)(F)CC2)n1` [Example 9.1, 6-({3-[(4,4-Difluoropiperidin-1-yl)methyl]-1H-pyrazol-1-yl}methyl)-5-methyl-[1,2,5]oxadiazolo [3,4-b]pyridin-7-amine] was 7.4 nM.
